pIC50: −log10 of the molar value. Starred links: 1 amine or outer side, 2 acyl side, 3 side chain; linkers in the order of their positions; H or OH if unused. Non-standard residues stand in square brackets, D forms with d. Residues, ends and D or L forms follow the SMILES beside them. *: point of attachment. NH(4-phenylbutyl) = c1ccc(CCCCN*)cc1; X1 = C[C@H](N[*:1])C(=O)C(=O)[*:2]; NHPhenethyl = c1ccc(CCN*)cc1
Key:
MjROM = assay: activity-based probe competition assay, rhomboid panel; assay type: biochemical, Methanocaldococcus jannaschii; conditions: 50 μM and 0.5 μM; outcompeted the ABP even at 500 nM
Source text: (§1) Any enzyme inhibitors to be used as specific tools for cell biology or as starting points for drug development must show sufficient level of selectivity toward their intended target. This is particularly important for compounds that react with the catalytic nucleophile common to many serine hydrolases. […] To map the selectivity of peptidyl ketoamides more objectively and widely, we employed activity-based probe (ABP) competition assays that enable a more general and substrate-independent measurement of inhibitory potency, because they rely solely on the competition between a fluorescently labeled activity-based probe and the tested inhibitor ([Nguyen et al., 2015], [Serim et al., 2012]). […]
(§2) Figure 5 Selectivity of Peptidyl Ketoamides (A) Selectivity of compounds 9, 10, and 11 for nine rhomboid proteases was profiled using activity-based probe competition assay at 50 μM and 0.5 μM concentration. […] (B) Selectivity of compounds 9, 10, and 11 against human serine hydrolases was analyzed using EnPlex as described ([Bachovchin et al., 2014]).
(§3) For inhibitor selectivity profiling against rhomboid proteases ([Wolf et al., 2015]), 400 ng of a purified protein preparation of E. coli GlpG was diluted in 30 μL of reaction buffer (20 mM HEPES, pH 7.4, with 0.05% (w/v) DDM). […] Gels were scanned on a Typhoon Trio+ and analyzed using ImageJ. […]

EcGlpG = target: T1, EcGlpG (Escherichia coli, UniProt P09391); assay: as above; assay type: biochemical, E. coli; conditions: 50 μM and 0.5 μM; outcompeted the ABP even at 500 nM
T1 construct: made in house; host or cells: E. coli C41(DE3)
Source text: as §1, §2, §3

endogenous YqgP = target: T2, endogenous YqgP (Bacillus subtilis, UniProt P54493); assay: inhibition of endogenous YqgP in live B. subtilis (LacYTM2 substrate cleavage, western blot); assay type: cell-based, Bacillus subtilis 168; conditions: for % substrate conversion: YqgP WT (BS87)
T2 construct: cleaved to about 75% conversion by the endogenous YqgP; endogenous in cells; host or cells: Bacillus subtilis 168 ydcA::neo, xkdE::substrate (BS87)
Description: The substrate MBP-FLAG-LacYTM2-Trx ([Strisovsky et al., 2009]) was expressed in wild-type E. coli NR698 with genetically permeabilized outer membrane ([Ruiz et al., 2005]) in the presence of increasing concentrations of inhibitors as described in STAR Methods. Substrate cleavage was measured in cell lysates by immunoblotting for FLAG and quantified using near-infrared fluorescence. The reported in vivo IC50 values are best-fit means with SD representative of 2–3 measurements. DMSO, dimethylsulfoxide vehicle control; KO, E. coli glpG::tet. […] The substrate AmyESP-MBP-FLAG-LacYTM2-Trx-HA was expressed in Bacillus subtilis 168 (ydcA::neo, xdkE::AmyESP-MBP-LacYTM2-Trx(erm, lin)) (BS87) in the presence of increasing concentrations of inhibitors as described in STAR Methods. Substrate cleavage was detected in cell lysates by immunoblotting for FLAG and detection by near-infrared fluorescence. […] This treatment was necessary because the specific cleavage product could not be resolved sufficiently well from the non-specific bands to be integrated separately. DMSO, dimethylsulfoxide vehicle control; YqgP KO, Bacillus subtilis 168 (ydcA::neo, yqgP::tet, xdkE::AmyESP-MBP-LacYTM2-Trx(erm, lin)) (BS88).
We then extended the range of organisms to Bacillus subtilis, a representative of Gram-positive bacteria, which have a thick cell wall and include major pathogens such as Staphylococcus, Listeria, Streptococcus, and others. Since the endogenous substrate of the B. subtilis rhomboid protease YqgP is unknown, and no robust and rescuable phenotypes have been reported for YqgP, we focused on inhibition of cleavage of a model substrate.
For measuring the inhibition of YqgP in vivo, the B. subtilis strains BS87 and its yqgP knock-out derivative BS88, generated in this work (see Constructs and Cloning section), were used as follows. The chimeric LacYTM2 substrate AmyEsp-MBP-FLAG-LacYTM2-Trx-HA (this work) was expressed under control of xylose promoter from the xdkE genomic locus. Fresh LB medium, supplemented with appropriate antibiotic, was inoculated with a few colonies of the B. subtilis strain grown overnight on selective LB agar plate and pre-culture was grown for 2 h at 37°C to OD600 = 1. Pre-culture was then diluted with fresh LB medium to the density of OD600 = 0.05. At this point, the expression of LacYTM2 was induced by adding 1% (w/v) D-(+)-xylose (Sigma), rhomboid inhibitors were added at a range of concentrations, and the cultures were further incubated for 2.5 h at 37°C (reaching OD600 ∼ 1). Steady-state conversion of the substrate was evaluated by western blotting with near-infrared fluorescence detection as described ([Ticha et al., 2017]), substracting the intensity of non-specific bands, closely co-migrating with the specific rhomboid-formed N-terminal cleavage product of the substrate.

T2 sequence (P54493 whole entry): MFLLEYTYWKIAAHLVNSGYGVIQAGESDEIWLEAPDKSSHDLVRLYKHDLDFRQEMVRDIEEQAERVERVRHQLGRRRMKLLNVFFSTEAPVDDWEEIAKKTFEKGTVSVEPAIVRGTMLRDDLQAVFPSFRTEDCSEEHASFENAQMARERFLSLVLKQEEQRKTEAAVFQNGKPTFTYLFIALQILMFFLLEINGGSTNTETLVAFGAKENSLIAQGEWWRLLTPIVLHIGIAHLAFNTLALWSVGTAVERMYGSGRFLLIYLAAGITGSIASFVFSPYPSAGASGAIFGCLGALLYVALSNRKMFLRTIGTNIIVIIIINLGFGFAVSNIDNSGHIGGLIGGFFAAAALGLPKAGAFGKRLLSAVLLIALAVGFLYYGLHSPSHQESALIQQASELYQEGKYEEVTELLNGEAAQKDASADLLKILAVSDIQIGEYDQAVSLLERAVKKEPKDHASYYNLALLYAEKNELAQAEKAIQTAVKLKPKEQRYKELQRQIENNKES
T1 sequence (P09391 whole entry): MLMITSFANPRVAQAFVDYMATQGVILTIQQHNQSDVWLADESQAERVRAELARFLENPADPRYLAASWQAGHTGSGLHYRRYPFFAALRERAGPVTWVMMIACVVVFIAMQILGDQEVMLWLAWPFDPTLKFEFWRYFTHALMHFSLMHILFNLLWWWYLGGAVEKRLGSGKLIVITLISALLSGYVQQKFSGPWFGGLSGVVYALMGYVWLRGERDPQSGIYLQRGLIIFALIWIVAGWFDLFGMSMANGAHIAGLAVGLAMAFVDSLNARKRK

| SMILES | competition with ABP labeling of MjROM (MjROM) | competition with ABP labeling of EcGlpG (EcGlpG) | pIC50 (endogenous YqgP) | % substrate conversion (endogenous YqgP; 0.6 nM compound 11) [%] | % substrate conversion (endogenous YqgP; 1.2 nM compound 11) [%] | % substrate conversion (endogenous YqgP; 2.5 nM compound 11) [%] | % substrate conversion (endogenous YqgP; 5 nM compound 11) [%] | % substrate conversion (endogenous YqgP; 10 nM compound 11) [%] | % substrate conversion (endogenous YqgP; 20 nM compound 11) [%] | % substrate conversion (endogenous YqgP; 50 nM compound 11) [%] | inhibition of substrate cleavage (endogenous YqgP; 50 nM in growth media) |
| --- | --- | --- | --- | --- | --- | --- | --- | --- | --- | --- | --- |
| CC(=O)N[C@@H](CCCNC(=N)N)C(=O)N[C@H](C(=O)N[C@@H](CCCNC(=N)N)C(=O)N[C@@H](Cc1c[nH]cn1)C(=O)N[C@@H](C)C(=O)C(=O)NCCc1ccccc1)C(C)C [compound 9, Ac-RVRHA-CONH-phenylethyl] (Ac-RVRH[X1]-NHPhenethyl) | potently competed | potently competed | – | – | – | – | – | – | – | – | – |
| CC(=O)N[C@@H](CCCNC(=N)N)C(=O)N[C@H](C(=O)N[C@@H](CCCNC(=N)N)C(=O)N[C@@H](Cc1c[nH]cn1)C(=O)N[C@@H](C)C(=O)C(=O)NCCCCc1ccccc1)C(C)C [compound 11, Ac-RVRHA-CONH-phenylbutyl] (Ac-RVRH[X1]-{NH(4-phenylbutyl)}) | potently competed | potently competed | 8.00 to 8.30 | 73 | 67 | 54 | 52 | 7 | 4 | 0 | completely inhibited |

Source: article PMC5746060, “General and Modular Strategy for Designing Potent, Selective, and Pharmacologically Compliant Inhibitors of Rhomboid Proteases” (Cell Chemical Biology, 2017)
